Source: US12098416B2, “Assessment of biological contamination and biological contamination treatment” (Halliburton Energy Services, Inc., priority 2019, dated 2024)

How the values were obtained:
[1] = tested on: SRB (sulfate reducing bacteria); assay: Biocide efficacy study on high TDS (10%) fluid sample, Rapid SRB Detection Pouches (thin-film culture device); type: cell-based; details: 4-hour biocide contact
Description: A biocide efficacy study on a high TDS (10%) fluid sample using a thin-film culture device was evaluated and compared to the traditional bug-bottle approach. The high TDS fluid sample was inoculated with mature SRB. Seventy-two 3 mL doses of the fluid sample were then introduced into 72 respective Rapid SRB Detection Pouches.
(§1) The fluid samples were then incubated at a temperature of 32° C. After approximately 24 hours of inoculation, the SRB count was measured using the incubation and referencing procedure of Example 1. The bug bottle numbers were determined by counting the number of bottles in a serial dilution which had formed a visible black precipitate.

[2] = tested on: SRB (sulfate reducing bacteria); assay: Biocide efficacy study on low TDS (1%) fluid sample, Rapid SRB Detection Pouches (thin-film culture device); type: cell-based; details: for reduction in SRB count: 24-hour biocide contact
Description: In this example, an assessment of biological contamination was performed using culture devices including indicator reagents. More specifically, SRB enumeration in various water samples including SRB was performed using thin-film culture devices (“pouches”). Three milliliters of two samples, Sample A and Sample B, were introduced into separate Rapid SRB Detection Pouches (manufactured by 3M™). The pouches were sealed and incubated at 32° C. The pouches were incubated upright to allow the precipitate to settle toward the bottom of pouch. The SRB count of each sample was measured at multiple time intervals using a visual technique where the color of the samples was compared to reference colors as shown in FIGS. 2A and 2B. The degree of blackening of the sample at certain time points compared to the reference is indicative of SRB count.
A biocide efficacy study on a low TDS (1%) fluid sample using a thin-film culture device was evaluated and compared to the traditional bug-bottle approach. The low TDS fluid sample was inoculated with mature SRB. Seventy-two 3 mL doses of the fluid sample were then introduced into 72 Rapid SRB Detection Pouches. […] The dosages were based on the standard US Environmental Protection Agency (EPA) recommendations for each respective biocide:
as §1

[3] = dose level not clearly singled out

Molecule | reduction in SRB count in comparison to the control [1, 3] | reduction in SRB count [2, 3] | reduction in SRB count in comparison to the control ([1]; low dose (THPS Low 25 ppm)) | reduction in SRB count in comparison to the control ([2]; 4-hour biocide contact, low dose (THPS Low 25 ppm)) | reduction in SRB count ([2]; low dose (THPS Low 25 ppm))
CCCCCCCCCC[N+](C)(C)CCCCCCCCCC.[Cl-] [Quat, didecyldimethyl ammonium chloride] | all but the Quat and THPS low dose biocide groups demonstrated a reduction in SRB count | all but the didecyldimethyl ammonium chloride and THPS low dose biocide groups demonstrated a reduction in SRB count | – | – | –
tetrakis(hydroxymethyl)phosphonium sulfate [THPS] | – | – | all but the Quat and THPS low dose biocide groups demonstrated a reduction in SRB count | all but the THPS Low biocide group demonstrated a reduction in SRB count | all but the didecyldimethyl ammonium chloride and THPS low dose biocide groups demonstrated a reduction in SRB count
